Several values for one entry are separate records, joined by “and”; a condition that tells them apart may be missing. Equal values may be shown once. Read-outs that look alike come from different tables or passages of the source.
How the values were obtained:
[1] = tested on: large-conductance Ca^2+-activated K^+ channels (BK channels); experiment: Steady state activation of BK channels; assay type: biochemical, goldfish, Carassius auratus; conditions: for Po: 20 μM [Sr^2+]i or 5 μM [Ca^2+]i (equipotent); for decrease in V0.5 produced by a 10-fold increase in concentration: slopes of concentration–V0.5 plots
[2] = tested on: large-conductance Ca^2+-activated K^+ channels (BK channels); assay type: biochemical, goldfish, Carassius auratus; conditions: voltage steps −50 to +50 mV; 20 μM Sr^2+ or 5 μM Ca^2+
[3] = tested on: large-conductance Ca^2+-activated K^+ channels (BK channels); assay type: biochemical, goldfish, Carassius auratus
[4] = tested on: large-conductance Ca^2+-activated K^+ channels (BK channels); experiment: Slow blockade: long shut events and burst durations in single BK channels; assay type: biochemical, goldfish, Carassius auratus
BK channels [5] = conditions: cited from earlier work
BK channels [6] = conditions: cultured neurons from rat hypothalamus and brain stem; ref Kang et al., 1994; cited from earlier work
BK channels [7] = conditions: T-tubule membrane in lipid bilayers; ref Oberhauser et al., 1988; cited from earlier work

Structure (SMILES): [Sr+2] [Sr^2+, Strontium]
- half-activation voltage V0.5 (Boltzmann distribution) ([1]; 5 μM [Sr^2+]i): 72 mV
- n (equivalent number of gating charges, Boltzmann distribution) ([1]; 5 μM [Sr^2+]i): 1.6
- half-activation voltage V0.5 (Boltzmann distribution) ([1]; 20 μM [Sr^2+]i): 39 mV
- n (equivalent number of gating charges, Boltzmann distribution) ([1]; 20 μM [Sr^2+]i): 1.4
- half-activation voltage V0.5 (Boltzmann distribution) ([1]; 200 μM [Sr^2+]i): 1 mV
- n (equivalent number of gating charges, Boltzmann distribution) ([1]; 200 μM [Sr^2+]i): 1.3
- half-activation voltage V0.5 (Boltzmann distribution) ([1]; 1,000 μM [Sr^2+]i): −22 mV
- n (equivalent number of gating charges, Boltzmann distribution) ([1]; 1,000 μM [Sr^2+]i): 1.3
- Hill coefficient for activation (slope of Hill plot) ([1]; 2nd of +50 to −50 mV series (40 mV)): 1.3
- Hill coefficient for activation (slope of Hill plot) ([1]; 3rd of +50 to −50 mV series (30 mV)): 1.2
- Hill coefficient for activation (slope of Hill plot) ([1]; 4th of +50 to −50 mV series (20 mV)): 1.0
- Hill coefficient for activation (slope of Hill plot) ([1]; 5th of +50 to −50 mV series (10 mV)): 0.83
- Hill coefficient for activation (slope of Hill plot) ([1]; 6th of +50 to −50 mV series (−10 mV)): 0.69
- Hill coefficient for activation (slope of Hill plot) ([1]; 7th of +50 to −50 mV series (−20 mV)): 0.70
- Hill coefficient for activation (slope of Hill plot) ([1]; 8th of +50 to −50 mV series (−30 mV)): 0.79
- Hill coefficient for activation (slope of Hill plot) ([1]; 9th of +50 to −50 mV series (−40 mV)): 0.78
- Hill coefficient for activation (slope of Hill plot) ([1]; 10th of +50 to −50 mV series (−50 mV)): 0.72
- Hill coefficient for activation (slope of Hill plot) ([1]; 50 mV): 1.6
- Po ([1]; 50 mV): 0.309
- Hill coefficient for activation ([1]; between −10 and −50 mV): ~0.7
- potency in activating BK channels relative to Ca^2+ ([1]; from concentration–V0.5 plots, eight membrane patches): approximately one-fourth
- decrease in V0.5 produced by a 10-fold increase in concentration ([1]; eight membrane patches): ~25 mV
- activation time constant [2]: 1.22 ms
- deactivation time constant [2]: 0.61 ms
- single-channel current amplitude ([3]; 0.1 mM [Sr^2+]i, 50 mV): 12.3 pA
- single-channel current amplitude ([3]; 0.1 mM [Sr^2+]i, 100 mV): 23.7 pA
- single-channel current amplitude ([3]; 1.0 mM [Sr^2+]i, 50 mV): 10.9 pA
- single-channel current amplitude ([3]; 1.0 mM [Sr^2+]i, 100 mV): 19.7 pA
- single-channel current amplitude ([3]; 10 mM [Sr^2+]i, 50 mV): 8.0 pA
- single-channel current amplitude ([3]; 10 mM [Sr^2+]i, 100 mV): 9.8 pA
- Hill coefficient for amplitude reduction (slope of Hill plot) ([3]; 1st of 100–30 mV series (100 mV)): 0.75
- Hill coefficient for amplitude reduction (slope of Hill plot) ([3]; 2nd of 100–30 mV series (90 mV)): 0.73
- Hill coefficient for amplitude reduction (slope of Hill plot) ([3]; 3rd of 100–30 mV series (80 mV)): 0.75
- Hill coefficient for amplitude reduction (slope of Hill plot) ([3]; 4th of 100–30 mV series (70 mV)): 0.70
- Hill coefficient for amplitude reduction (slope of Hill plot) ([3]; 5th of 100–30 mV series (60 mV)): 0.66
- Hill coefficient for amplitude reduction (slope of Hill plot) ([3]; 6th of 100–30 mV series (50 mV)): 0.62
- Hill coefficient for amplitude reduction (slope of Hill plot) ([3]; 7th of 100–30 mV series (40 mV)): 0.67
- Hill coefficient for amplitude reduction (slope of Hill plot) ([3]; 8th of 100–30 mV series (30 mV)): 0.64
- Hill coefficients for amplitude reduction ([3]; all voltages (30–100 mV), [Sr^2+]i 0.5 mM or higher): 0.62–0.75
- internal concentration producing fast and slow blockade ([3]; concentration and voltage dependent): > 100 µM
- permeation of the channel ([3]; no shift in the reversal voltage in the current–voltage relation): could scarcely permeate the channel
- duration of long shut events (slow blockade) [4]: 10 to 200 ms
- probability for the open state during bursts (P[open|burst]) ([4]; 500 μM [Sr^2+]i at 30 mV): 0.86
- time constant of burst durations (τb) ([4]; 0.5 mM [Sr^2+]i, 30 mV): 1,310 ms
- time constant of long shut events (τl−s) ([4]; 0.5 mM [Sr^2+]i, 30 mV): 75.1 ms
- time constant of burst durations (τb) ([4]; 0.5 mM [Sr^2+]i, 50 mV): 631 ms
- time constant of long shut events (τl−s) ([4]; 0.5 mM [Sr^2+]i, 50 mV): 44.7 ms
- time constant of burst durations (τb) ([4]; 2 mM [Sr^2+]i, 30 mV): 520 ms
- time constant of long shut events (τl−s) ([4]; 2 mM [Sr^2+]i, 30 mV): 41.3 ms
- time constant of burst durations (τb) ([4]; 2 mM [Sr^2+]i, 50 mV): 195 ms
- time constant of long shut events (τl−s) ([4]; 2 mM [Sr^2+]i, 50 mV): 41.0 ms
- time constant of burst durations (τb) ([4]; 10 mM Sr^2+, 50 mV, threshold time for long shut events 3.32 ms): 51.0 ms
- time constant of burst durations (τb) ([4]; 10 mM Sr^2+, 50 mV, threshold time for long shut events 15.8 ms): 94.0 ms
- probability for the open state during bursts (P[open|burst]) ([4]; 10 mM [Sr^2+]i at 50 mV): 0.94
- time constant of burst durations (τb) ([4]; 10 mM [Sr^2+]i, 30 mV): 163 ms
- time constant of long shut events (τl−s) ([4]; 10 mM [Sr^2+]i, 30 mV): 44.6 ms
- time constant of long shut events (τl−s) ([4]; 10 mM [Sr^2+]i, 50 mV): 34.4 ms
- time constant of burst durations (τb) ([4]; 10 mM [Sr^2+]i, 50 mV (threshold time for long shut events 6.64 ms)): 63.2 ms
- τb ([4]; 10 mV, square patch (Fig. 9 C)): 425 ms
- slope of log(n 1−s/n s) versus log([Sr^2+]i) ([4]; 10 mV, triangle patch): 0.95
- slope of log(τb) versus log([Sr^2+]i) ([4]; 10 mV, triangle patch): −1.23
- slope of log(τl−s) versus log([Sr^2+]i) ([4]; 10 mV, triangle patch): −0.15
- slope of log(n 1−s/n s) versus log([Sr^2+]i) ([4]; 30 mV, circle patch): 0.71
- slope of log(τb) versus log([Sr^2+]i) ([4]; 30 mV, circle patch): −0.74
- slope of log(τl−s) versus log([Sr^2+]i) ([4]; 30 mV, circle patch): −0.094
- slope of log(n 1−s/n s) versus log([Sr^2+]i) ([4]; 30 mV, triangle patch): 1.08
- slope of log(τb) versus log([Sr^2+]i) ([4]; 30 mV, triangle patch): −0.78
- slope of log(τl−s) versus log([Sr^2+]i) ([4]; 30 mV, triangle patch): 0.01
- slope of log(n 1−s/n s) versus log([Sr^2+]i) ([4]; 50 mV, circle patch): 0.92
- slope of log(τb) versus log([Sr^2+]i) ([4]; 50 mV, circle patch): −0.74
- slope of log(τl−s) versus log([Sr^2+]i) ([4]; 50 mV, circle patch): −0.11
- zd for slow blockade (Woodhull equation, Eq. 7) ([4]; one value per experiment): 0.95 and 1.84
- slope of log(n 1−s/n s) versus log([Sr^2+]i) ([4]; square patch): 1.18
- slope of log(τb) versus log([Sr^2+]i) ([4]; square patch): −1.00
- slope of log(τl−s) versus log([Sr^2+]i) ([4]; square patch): −0.05
- slopes of log(τb) versus log([Sr^2+]i) fitting lines ([4]; three experiments): −0.74 to −1.23
- slopes of log(τl−s) versus log([Sr^2+]i) fitting lines ([4]; three experiments): −0.15–0.01

Structure (SMILES): [Ba+2] [Ba^2+, barium ion]
- time constant of long shut events, second exponential ([4]; 20 μM [Ba^2+]i, 100 μM [Ca^2+]i, 50 mV, area 162 events): 359 ms
- time constant of long shut events, first exponential ([4]; 20 μM [Ba^2+]i, 100 μM [Ca^2+]i, 50 mV, area 372 events): 18.8 ms
- depth of the binding site within the membrane voltage field (Ba^2+ blockade) (BK channels [5]; ref Benham et al., 1985): 0.96
- depth of the binding site within the membrane voltage field (Ba^2+ blockade) (BK channels [5]; ref Diaz et al., 1996): 0.92
- depth of the binding site within the membrane voltage field (Ba^2+ blockade) (BK channels [5]; ref Neyton and Miller, 1988): 0.5–0.7
- depth of the binding site within the membrane voltage field (Ba^2+ blockade) (BK channels [5]; ref Vergara and Latorre, 1983): 0.8

Structure (SMILES): [Ca+2].[Cl-].[Cl-] [Ca^2+]
- Hill coefficient for activation (slope of Hill plot) ([1]; 50 mV): 2.7
- Po ([1]; 50 mV): 0.315
- decrease in V0.5 produced by a 10-fold increase in concentration ([1]; eight membrane patches): ~35 mV
- activation time constant [2]: 1.14 ms
- deactivation time constant [2]: 0.54 ms
- single-channel current amplitude ([3]; 5 μM [Ca^2+]i, 50 mV (original amplitude)): 13.2 pA
- single-channel current amplitude ([3]; 5 μM [Ca^2+]i, 100 mV (original amplitude)): 26.1 pA
- potency in reducing the outward current amplitude relative to internal Mg^2+ (BK channels [6]): ~1,000 ×
- potency of fast blockade relative to Mg^2+ or Sr^2+ (BK channels [7]): > 10 ×

From paper PMC2222763 (The Journal of General Physiology, 1998)
